Earlier results as cited in patent US7605152B2, “17-hydroxy-4-aza-androstan-3-ones as androgen receptor modulators” (priority 2002, dated 2009).

How the values were obtained:
[1] = after 7 years of treatment
[2] = after a median of 22 months of treatment

Compound	increase in spinal BMD [1] [%]	reduction in nonvertebral fractures [2] [%]	reduction in spine fractures [2] [%]
NCCCC(O)(P(=O)([O-])O)P(=O)(O)O.O.O.O.[Na+] [alendronate, (4-amino-1-hydroxybutylidene)-bis-phosphonate monosodium trihydrate]	11	–	–
hPTH(1-34): human parathyroid hormone 1-34 fragment (SVSEIQLMHNLGKHLNSMERVEWLRKKLQDVHNF; Parathyroid hormone; UniProt P01270 32-65, looked up, fragment)	–	54	≥ 65
